Source: ChEMBL document CHEMBL1201862, “PubChem BioAssay data set” (2004)
One block for each compound: values may come before it. Activity calls are given as the source filed them.

Columns and labels:
[1] = molecular target: T1, Heat shock factor protein 1 (Mus musculus, UniProt P38532); assay: HSF1 potentiators in luciferase reporter cells, confirmation, cell-based, NIH3T3, luminescence, dose retest (AID 435004); assay type: functional;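 note: stress induced by proteasome inhibitor MG132 added 30 min after compound; luciferase reporter driven by HSF1 response element in NIH3T3 cells; actives raise luminescence as potentiators of the MG132 stress response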
T1 sequence (P38532 whole entry): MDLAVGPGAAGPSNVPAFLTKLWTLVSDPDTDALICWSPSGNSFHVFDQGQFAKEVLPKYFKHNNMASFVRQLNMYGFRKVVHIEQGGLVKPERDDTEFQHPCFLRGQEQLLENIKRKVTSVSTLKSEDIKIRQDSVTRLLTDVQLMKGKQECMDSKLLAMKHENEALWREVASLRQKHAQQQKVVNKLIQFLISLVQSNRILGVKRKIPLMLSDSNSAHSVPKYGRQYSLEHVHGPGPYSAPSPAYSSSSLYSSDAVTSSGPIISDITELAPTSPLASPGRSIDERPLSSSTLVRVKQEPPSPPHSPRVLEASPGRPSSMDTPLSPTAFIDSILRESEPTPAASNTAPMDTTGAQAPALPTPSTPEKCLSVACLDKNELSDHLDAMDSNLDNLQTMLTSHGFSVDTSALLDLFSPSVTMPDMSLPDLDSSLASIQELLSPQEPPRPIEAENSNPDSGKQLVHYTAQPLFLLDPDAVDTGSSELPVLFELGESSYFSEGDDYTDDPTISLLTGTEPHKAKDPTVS

[2] = molecular target: T2, Microphthalmia-associated transcription factor (Homo sapiens, UniProt O75030); assay: TRPM1 promoter luciferase signal decrease, dose response, MITF inhibitor project, cell-based, SK-MEL-5, cherry-picked, set 3 (AID 493073); assay type: functional
T2 sequence (O75030 whole entry): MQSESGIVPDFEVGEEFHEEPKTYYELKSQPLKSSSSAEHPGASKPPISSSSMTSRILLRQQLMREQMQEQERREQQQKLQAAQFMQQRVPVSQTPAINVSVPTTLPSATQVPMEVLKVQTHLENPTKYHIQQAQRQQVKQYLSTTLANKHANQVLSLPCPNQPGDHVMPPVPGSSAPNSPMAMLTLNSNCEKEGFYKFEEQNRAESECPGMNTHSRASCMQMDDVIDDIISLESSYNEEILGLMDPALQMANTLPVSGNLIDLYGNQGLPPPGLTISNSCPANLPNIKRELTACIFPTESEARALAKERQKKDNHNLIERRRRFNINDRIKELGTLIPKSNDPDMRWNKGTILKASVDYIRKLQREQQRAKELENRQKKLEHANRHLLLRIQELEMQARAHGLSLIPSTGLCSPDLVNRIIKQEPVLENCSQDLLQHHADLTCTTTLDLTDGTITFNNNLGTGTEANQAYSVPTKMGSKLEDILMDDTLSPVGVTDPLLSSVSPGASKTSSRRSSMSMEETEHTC

[3] = molecular target: Heat shock protein HSP 90-alpha (Homo sapiens, UniProt P07900); assay type: functional, organism-based
[4] = molecular target: 72 kDa type IV collagenase (Homo sapiens, UniProt P08253); assay: Dose Response validation of uHTS RPN11 inhibitor hits using a MMP-2 Fluorescence assay.; assay type: functional
[5] = molecular target: 26S proteasome non-ATPase regulatory subunit 14 (Homo sapiens, UniProt O00487); assay: inhibition of proteasome subunit RPN11 – biochemical, fluorescence polarization, uHTS hits, confirmation (AID 602368); assay type: functional
Prothrombin = Prothrombin (Bos taurus, UniProt P00735); assay: thrombin inhibition, dose response, biochemical, fluorescence polarization, uHTS hits (AID 602369); assay type: functional
HEK293 = assay: inhibitors of LMP1-driven NF-kB reporter, dose response, cell-based, HEK293, luciferase, cherry-pick (AID 588343); assay type: functional; settings: Homo sapiens
[6] = HepG2 cell cytotoxicity, dose response, cytotoxicity control for Shn3 inhibitor project, CellTiter-Glo, cherry-picked (AID 624134); assay type: functional, cell-based
[7] = Shn3 3'UTR reporter inhibitors, dose response, cell-based, Clone20 osteoblasts, firefly luciferase, cherry-picked (AID 624132); assay type: functional;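 note: firefly luciferase luminescence from reporter carrying the Shn3 3'UTR in osteoblasts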
[8] = control 3'UTR Renilla luciferase suppression, dose response, counter-screen for Shn3 inhibitor project, cell-based, Clone20-Shn3RL, cherry-picked (AID 624133); assay type: functional
Fatty acid synthase [9] = molecular target: T3, Fatty acid synthase (Homo sapiens, UniProt P49327); assay: FAS thioesterase domain inhibitors, dose response, biochemical, endpoint fluorescence intensity, uHTS hits (AID 624327); assay type: functional;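 note: fluorescence from hydrolysis of an O-methyl fluorescein acyl ester substrate by the enzyme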
Fatty acid synthase [10] = molecular target: T3, Fatty acid synthase; assay: FAS thioesterase domain inhibitors, dose response, biochemical, kinetic fluorescence intensity (AID 624326); assay type: functional;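 note: rate of fluorescence rise from hydrolysis of a fluorogenic O-methyl fluorescein ester substrate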
[11] = molecular target: Induced myeloid leukemia cell differentiation protein Mcl-1 (Homo sapiens, UniProt Q07820); assay type: functional
[12] = Luminescence Cell-Based Dose Confirmation HTS to Identify Inhibitors of Platelet Dense Granule Release. [Related pubchem assays: 1663 (Primary HTS), 1678 (Summary of Project)]; assay type: functional
[13] = molecular target: Luciferin 4-monooxygenase (Photinus pyralis, UniProt P08659); assay: firefly luciferase enzyme inhibitors, dose response, biochemical, luminescence (AID 1891)
[14] = molecular target: DNA dC->dU-editing enzyme APOBEC-3G (Homo sapiens, UniProt Q9HC16); assay type: functional;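 note: Dose-response counterscreen measuring inhibition of APOBEC3G DNA deaminase activity, run while confirming APOBEC3A inhibitors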
[15] = molecular target: T4, Ubiquitin-conjugating enzyme E2 N (Homo sapiens, UniProt P61088); assay type: functional;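 note: Dose-response confirmation in a TR-FRET assay detecting UBC13-driven polyubiquitin chain formation, inhibition measured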
T4 sequence (P61088 whole entry): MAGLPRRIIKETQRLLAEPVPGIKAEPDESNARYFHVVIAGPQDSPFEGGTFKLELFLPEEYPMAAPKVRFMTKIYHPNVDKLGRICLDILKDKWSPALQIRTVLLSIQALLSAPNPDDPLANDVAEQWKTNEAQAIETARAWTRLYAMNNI

[16] = molecular target: DNA dC->dU-editing enzyme APOBEC-3A (Homo sapiens, UniProt P31941); assay: Dose Response confirmation of small molecule APOBEC3A DNA Deaminase Inhibitors via a fluorescence-based single-stranded DNA deaminase assay. [Related pubchem assays (depositor defined):AID493011, AID493024]; assay type: functional
[17] = molecular target: T5, Low molecular weight phosphotyrosine protein phosphatase (Homo sapiens, UniProt P24666); assay type: functional; settings: read-out: IC50_Mean;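 note: Dose-response confirmation assay measuring inhibition of LMPTP enzyme activity by fluorescence intensity read-out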
T5 sequence (P24666 whole entry): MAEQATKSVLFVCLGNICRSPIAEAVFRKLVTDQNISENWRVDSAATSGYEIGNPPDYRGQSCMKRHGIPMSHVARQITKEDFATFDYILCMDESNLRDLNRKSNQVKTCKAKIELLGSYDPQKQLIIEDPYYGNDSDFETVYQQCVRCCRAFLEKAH

Cytochrome P450 2C9 = Cytochrome P450 2C9 (Homo sapiens, UniProt P11712)
Cytochrome P450 2C19 = Cytochrome P450 2C19 (Homo sapiens, UniProt P33261); assay: Cytochrome panel assay with activity outcomes. Panel member name: p450-cyp2c19 Compounds with AC50 equal or less than 10 uM are considered active; assay type: functional; settings: read-out: AC50
Cytochrome P450 3A4 = Cytochrome P450 3A4 (Homo sapiens, UniProt P08684);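 note: CYP3A4 tested as one member of a cytochrome P450 panel screen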
[18] = cytotoxicity in HEK-293T cells, dose response, cytotoxicity control for TCR NF-kB inhibitor project, luminescence, T-cell screen hits (AID 489026); assay type: functional, cell-based;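 note: cells exposed to compound about 14 hours before the viability readout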
Paired box protein Pax-8 = Paired box protein Pax-8 (Homo sapiens, UniProt Q06710); assay: inhibitors of PAX8-driven TPO luciferase reporter, dose response, RMG-I cells, cherry-pick (AID 687027); assay type: functional, cell-based;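 note: luciferase reporter driven by Pax8 target thyroperoxidase promoter measured by SteadyGlo luminescence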
[19] = cytotoxicity in HPDE-C7 cells, cell-based, fluorescence, HTS (AID 430); assay type: functional; settings: Homo sapiens
INS1 = assay: beta cell apoptosis inhibitors, cytokine rescue, dose response, luminescence, retest (AID 449756); assay type: functional, cell-based; settings: Rattus norvegicus;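 note: cell death triggered by IL-1 beta plus TNF-alpha plus IFN-gamma mixture; protective hits raise ATP signal compared with cytokine alone wells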
[20] = cytotoxicity in KRAS-transformed pancreatic duct cells, primary screen, cell-based, fluorescence, HTS (AID 431); assay type: functional; settings: Homo sapiens;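 note: cell line used: HPDE-C7K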

Sequence of Cytochrome P450 2C9 (P11712 whole entry): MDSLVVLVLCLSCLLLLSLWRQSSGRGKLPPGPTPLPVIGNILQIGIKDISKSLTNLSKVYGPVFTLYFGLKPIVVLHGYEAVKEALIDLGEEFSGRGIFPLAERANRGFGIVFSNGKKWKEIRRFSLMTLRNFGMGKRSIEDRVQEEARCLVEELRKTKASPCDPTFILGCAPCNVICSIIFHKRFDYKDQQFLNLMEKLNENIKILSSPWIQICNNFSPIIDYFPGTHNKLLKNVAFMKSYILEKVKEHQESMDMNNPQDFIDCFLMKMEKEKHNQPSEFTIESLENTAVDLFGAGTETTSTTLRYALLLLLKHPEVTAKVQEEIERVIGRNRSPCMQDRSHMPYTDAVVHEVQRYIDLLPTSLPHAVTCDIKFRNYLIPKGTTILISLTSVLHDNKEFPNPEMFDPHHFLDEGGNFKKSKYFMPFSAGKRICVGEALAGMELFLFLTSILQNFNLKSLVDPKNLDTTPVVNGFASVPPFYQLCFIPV
Sequence of 26S proteasome non-ATPase regulatory subunit 14 (O00487 whole entry): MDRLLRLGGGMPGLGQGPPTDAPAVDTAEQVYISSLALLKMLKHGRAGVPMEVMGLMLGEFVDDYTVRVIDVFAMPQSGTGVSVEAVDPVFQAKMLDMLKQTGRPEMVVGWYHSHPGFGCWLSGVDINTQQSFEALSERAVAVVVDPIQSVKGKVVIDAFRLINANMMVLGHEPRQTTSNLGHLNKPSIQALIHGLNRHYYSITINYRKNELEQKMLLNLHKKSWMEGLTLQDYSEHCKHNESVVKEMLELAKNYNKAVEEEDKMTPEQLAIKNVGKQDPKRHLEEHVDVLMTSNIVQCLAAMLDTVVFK
T3 sequence (P49327 whole entry, the tested form may be a part): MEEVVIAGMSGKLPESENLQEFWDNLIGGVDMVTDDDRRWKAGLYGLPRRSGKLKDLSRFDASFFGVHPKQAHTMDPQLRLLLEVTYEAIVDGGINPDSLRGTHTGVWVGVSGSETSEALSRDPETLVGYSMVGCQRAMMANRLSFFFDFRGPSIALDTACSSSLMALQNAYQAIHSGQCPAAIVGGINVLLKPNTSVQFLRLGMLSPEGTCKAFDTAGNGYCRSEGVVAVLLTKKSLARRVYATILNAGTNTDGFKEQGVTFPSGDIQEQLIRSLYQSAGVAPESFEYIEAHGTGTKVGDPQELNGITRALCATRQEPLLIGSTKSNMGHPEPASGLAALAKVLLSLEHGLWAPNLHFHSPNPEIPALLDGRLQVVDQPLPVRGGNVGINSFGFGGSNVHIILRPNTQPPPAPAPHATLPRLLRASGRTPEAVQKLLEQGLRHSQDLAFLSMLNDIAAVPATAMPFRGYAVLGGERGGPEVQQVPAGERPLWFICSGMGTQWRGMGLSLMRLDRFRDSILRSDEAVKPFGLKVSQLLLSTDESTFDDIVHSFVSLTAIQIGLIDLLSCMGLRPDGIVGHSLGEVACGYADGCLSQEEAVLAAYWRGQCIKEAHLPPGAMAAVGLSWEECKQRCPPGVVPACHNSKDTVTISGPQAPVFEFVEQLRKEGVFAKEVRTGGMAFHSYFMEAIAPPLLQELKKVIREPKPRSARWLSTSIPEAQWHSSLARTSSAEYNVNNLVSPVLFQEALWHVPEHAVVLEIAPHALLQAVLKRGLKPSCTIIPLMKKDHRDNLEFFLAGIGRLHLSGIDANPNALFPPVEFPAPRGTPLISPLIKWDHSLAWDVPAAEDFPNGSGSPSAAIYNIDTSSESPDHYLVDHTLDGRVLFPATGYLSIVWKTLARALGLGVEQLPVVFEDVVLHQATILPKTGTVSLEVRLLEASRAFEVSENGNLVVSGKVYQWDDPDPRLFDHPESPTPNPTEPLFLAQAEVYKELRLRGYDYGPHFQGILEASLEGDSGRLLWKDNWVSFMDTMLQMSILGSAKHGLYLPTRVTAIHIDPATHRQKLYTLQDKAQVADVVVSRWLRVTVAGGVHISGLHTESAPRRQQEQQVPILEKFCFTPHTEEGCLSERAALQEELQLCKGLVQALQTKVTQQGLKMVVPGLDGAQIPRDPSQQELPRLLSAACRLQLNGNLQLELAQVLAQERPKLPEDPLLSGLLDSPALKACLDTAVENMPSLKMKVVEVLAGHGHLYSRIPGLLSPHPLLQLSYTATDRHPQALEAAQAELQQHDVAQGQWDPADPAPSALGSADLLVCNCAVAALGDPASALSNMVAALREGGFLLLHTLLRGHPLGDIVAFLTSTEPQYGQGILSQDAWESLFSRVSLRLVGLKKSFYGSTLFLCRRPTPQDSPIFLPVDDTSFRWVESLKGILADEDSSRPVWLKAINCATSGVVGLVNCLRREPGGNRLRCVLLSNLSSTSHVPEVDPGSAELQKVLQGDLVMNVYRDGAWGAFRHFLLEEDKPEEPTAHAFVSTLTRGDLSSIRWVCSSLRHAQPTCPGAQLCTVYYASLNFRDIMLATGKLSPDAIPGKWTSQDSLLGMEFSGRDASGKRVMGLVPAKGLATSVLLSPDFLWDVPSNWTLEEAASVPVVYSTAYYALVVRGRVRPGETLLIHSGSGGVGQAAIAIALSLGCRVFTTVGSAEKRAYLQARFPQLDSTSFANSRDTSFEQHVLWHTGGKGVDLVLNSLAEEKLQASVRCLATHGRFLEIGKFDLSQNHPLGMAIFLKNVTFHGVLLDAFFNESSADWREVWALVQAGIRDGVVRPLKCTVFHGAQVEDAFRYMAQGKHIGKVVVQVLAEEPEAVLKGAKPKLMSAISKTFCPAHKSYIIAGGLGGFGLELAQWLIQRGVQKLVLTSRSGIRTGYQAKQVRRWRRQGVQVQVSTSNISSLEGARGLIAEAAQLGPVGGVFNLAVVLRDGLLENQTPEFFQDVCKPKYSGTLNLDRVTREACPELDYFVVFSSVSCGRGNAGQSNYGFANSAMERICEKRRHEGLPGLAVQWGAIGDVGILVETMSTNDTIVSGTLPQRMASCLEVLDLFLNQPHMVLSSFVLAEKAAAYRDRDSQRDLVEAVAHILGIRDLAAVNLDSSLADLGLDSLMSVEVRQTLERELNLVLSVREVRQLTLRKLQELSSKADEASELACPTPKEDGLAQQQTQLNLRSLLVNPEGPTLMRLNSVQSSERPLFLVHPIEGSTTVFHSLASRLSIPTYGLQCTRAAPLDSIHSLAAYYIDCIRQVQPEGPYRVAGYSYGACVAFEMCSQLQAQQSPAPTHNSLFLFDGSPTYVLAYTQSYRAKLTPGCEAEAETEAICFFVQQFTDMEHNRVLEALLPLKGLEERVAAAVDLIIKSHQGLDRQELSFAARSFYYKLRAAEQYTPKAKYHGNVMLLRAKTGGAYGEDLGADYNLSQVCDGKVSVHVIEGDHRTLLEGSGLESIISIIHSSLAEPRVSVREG
Sequence of 72 kDa type IV collagenase (P08253 whole entry): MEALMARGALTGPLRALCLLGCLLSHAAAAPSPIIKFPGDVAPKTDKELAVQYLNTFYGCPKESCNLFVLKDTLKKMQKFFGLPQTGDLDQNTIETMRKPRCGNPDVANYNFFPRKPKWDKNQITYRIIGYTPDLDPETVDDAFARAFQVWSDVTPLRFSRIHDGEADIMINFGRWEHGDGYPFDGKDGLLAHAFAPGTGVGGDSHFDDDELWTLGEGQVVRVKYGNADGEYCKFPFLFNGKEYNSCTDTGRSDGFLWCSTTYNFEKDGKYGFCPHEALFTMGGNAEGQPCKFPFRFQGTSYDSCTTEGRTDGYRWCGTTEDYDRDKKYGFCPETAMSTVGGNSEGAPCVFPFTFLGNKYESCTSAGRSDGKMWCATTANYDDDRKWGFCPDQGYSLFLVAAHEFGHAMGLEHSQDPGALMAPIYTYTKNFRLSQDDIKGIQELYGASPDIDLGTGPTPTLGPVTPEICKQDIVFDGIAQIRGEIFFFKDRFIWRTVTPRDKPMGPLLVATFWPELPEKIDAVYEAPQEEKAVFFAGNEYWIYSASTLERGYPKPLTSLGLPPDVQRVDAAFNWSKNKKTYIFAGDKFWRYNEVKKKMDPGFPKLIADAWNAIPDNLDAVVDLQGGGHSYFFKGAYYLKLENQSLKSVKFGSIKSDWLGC
Sequence of Paired box protein Pax-8 (Q06710 whole entry): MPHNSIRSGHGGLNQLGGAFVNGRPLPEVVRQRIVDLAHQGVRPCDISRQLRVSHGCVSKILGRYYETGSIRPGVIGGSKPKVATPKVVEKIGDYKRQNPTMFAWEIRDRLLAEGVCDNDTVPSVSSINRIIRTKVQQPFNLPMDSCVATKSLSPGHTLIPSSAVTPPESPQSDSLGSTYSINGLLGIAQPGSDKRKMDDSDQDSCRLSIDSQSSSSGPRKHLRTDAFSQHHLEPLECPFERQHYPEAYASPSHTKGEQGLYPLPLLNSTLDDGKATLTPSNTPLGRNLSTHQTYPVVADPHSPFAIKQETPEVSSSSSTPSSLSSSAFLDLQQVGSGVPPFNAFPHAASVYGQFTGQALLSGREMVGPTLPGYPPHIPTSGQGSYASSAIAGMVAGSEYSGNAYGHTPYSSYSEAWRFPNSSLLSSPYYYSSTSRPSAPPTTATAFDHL
Sequence of Cytochrome P450 3A4 (P08684 whole entry): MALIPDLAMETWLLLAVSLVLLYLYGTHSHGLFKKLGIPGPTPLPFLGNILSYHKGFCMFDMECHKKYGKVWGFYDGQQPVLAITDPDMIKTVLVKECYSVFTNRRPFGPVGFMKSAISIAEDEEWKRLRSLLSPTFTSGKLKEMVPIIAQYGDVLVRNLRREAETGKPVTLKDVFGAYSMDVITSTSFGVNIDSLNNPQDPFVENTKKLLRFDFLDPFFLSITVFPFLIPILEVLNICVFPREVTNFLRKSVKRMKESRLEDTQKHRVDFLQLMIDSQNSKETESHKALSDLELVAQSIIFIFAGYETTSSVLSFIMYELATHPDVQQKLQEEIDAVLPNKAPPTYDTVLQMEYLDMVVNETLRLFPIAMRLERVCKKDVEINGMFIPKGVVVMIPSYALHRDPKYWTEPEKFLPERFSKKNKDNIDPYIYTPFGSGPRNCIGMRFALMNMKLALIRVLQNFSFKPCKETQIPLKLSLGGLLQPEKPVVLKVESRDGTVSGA

Structure (SMILES): COC(=O)[C@@]1(Cc2ccccc2)[C@H]2C(=O)N(Cc3ccccc3)C(=O)[C@H]2[C@H]2CN=C(SCc3ccc(Cl)cc3)N21
AC50 (HEK293): 6.5 µM (active)

Structure (SMILES): Cc1nc2c(OCc3ccc(Cl)cc3Cl)cccn2c1N(C)CC1CC1
AC50 [6]: 35.3 µM (active) | AC50 [7]: 10 µM (active) | AC50 [8]: 19.9 µM (active) | IC50 (Fatty acid synthase [9]): 12.7 µM (active) | IC50 (Fatty acid synthase [10]): 12.9 µM (active)

Structure (SMILES): COc1ccc(C(=O)/N=c2\nc3ccccn3s2)cc1
AC50 (HEK293): 0.768 µM (active) | EC50 [12]: 5.24 µM (active) | EC50 [13]: 1.07 µM (active)

Structure (SMILES): COC(=O)C1=C(C)N(Cc2ccccc2)C(NCC(C)C)=N[C@H]1c1cccc(C(F)(F)F)c1
AC50 [2]: 15 µM (active) | IC50 [14]: 4.22 µM (active) | IC50 [15]: > 20 µM (inactive) | IC50 [16]: 2.88 µM (active)

Structure (SMILES): COc1cc(C2C(C#N)=C(N)Oc3cc4c(cc32)OCO4)cc(OC)c1OC (configuration not stated)
IC50 [18]: > 80 µM (inactive) | AC50 [2]: 0.365 µM (active) | AC50 (Paired box protein Pax-8): 0.553 µM (active)

Structure (SMILES): C/C(=N\Nc1nc(N2CCOCC2)nc(N2CCOCC2)n1)c1ccc([N+](=O)[O-])cc1
IC50 (Fatty acid synthase [9]): 14.5 µM (active) | IC50 (Fatty acid synthase [10]): 17.9 µM (active)

Structure (SMILES): O=C(c1ccccc1)C(CCC(CN1CCOCC1)C(=O)c1ccccc1)CN1CCOCC1 (configuration not stated)
EC50 [19]: 11.1 µM (active) | AC50 [6]: 12.6 µM (active) | AC50 [7]: 12.8 µM (active) | AC50 [8]: 11.9 µM (active) | AC50 (HEK293): 6.35 µM (active) | AC50 (INS1): > 120 µM (inactive) | EC50 [20]: 6.43 µM (active)

Structure (SMILES): O=C(Nc1ccc2c(c1)CCC2)c1cc(S(=O)(=O)N2CCN(c3ccccc3)CC2)ccc1Cl
IC50 [4]: > 100 µM (inactive) | IC50 [5]: 50.9 µM (active) | IC50 (Prothrombin): 31.6 µM (active)

Structure (SMILES): Cn1nc(C(F)(F)F)c(/C=N/OC(=O)c2ccccc2)c1Cl
AC50 (Cytochrome P450 2C9): inactive

Structure (SMILES): CCN(CC)C(=O)C(=O)N/N=C/c1cccc(Br)c1
AC50 (Cytochrome P450 2C9): inconclusive

Structure (SMILES): O=C1C=Cc2cccc3ccc(O)c1c23
AC50 (HEK293): 18.1 µM (active)

Other lines, results leading:

EC50 [1]: > 260 µM (inconclusive) | AC50 [2]: 3.62 µM (active) | AC50 [3]: 0.75 µM (active)
Structure (SMILES): O=C(C#Cc1ccccc1)c1cccc([N+](=O)[O-])c1

IC50 [4]: 92.4 µM (active) | IC50 [5]: 27.1 µM (active) | IC50 (Prothrombin): 22.2 µM (active)
Structure (SMILES): COc1ccc(Cc2c(-c3ccc(C)cc3)nc3ccc(Cl)cn23)c(C)c1

IC50 [4]: > 100 µM (inactive) | IC50 [11]: 4.92 µM (active) | IC50 [5]: 44.7 µM (active) | IC50 (Prothrombin): 40.4 µM (active)
Structure (SMILES): NC1=NC(=O)/C(=C/c2cn(CCC(=O)O)nc2-c2ccc(Cl)cc2)S1

IC50 [17]: 10.4 µM (active)
Structure (SMILES): O=C(N/N=C/C(Br)=C/c1ccccc1)c1ccc([N+](=O)[O-])cc1

IC50 [17]: 4.77 µM (active)
Structure (SMILES): Cc1cc(N2CCN(c3nc(-c4ccc([N+](=O)[O-])cc4)cs3)CC2)c2ccccc2n1

IC50 (Fatty acid synthase [9]): 8.63 µM (active) | IC50 (Fatty acid synthase [10]): 9.1 µM (active)
Structure (SMILES): CC(C)COc1ccc(C(=O)N/C(=C\c2cccc([N+](=O)[O-])c2)C(=O)O)cc1

AC50 (Cytochrome P450 2C9): inconclusive | AC50 (Cytochrome P450 2C19): 20 µM (inconclusive) | AC50 (Cytochrome P450 3A4): 28.2 µM (inconclusive)
Structure (SMILES): COc1ccc(C(=O)NCc2cn3ccccc3n2)cc1

IC50 [17]: 52.9 µM (inactive)
Structure (SMILES): O=C(N/N=C/C(Cl)=C/c1ccccc1)c1ccc2c(c1)OCO2

AC50 (Cytochrome P450 2C9): inconclusive
Structure (SMILES): COc1ccccc1CC(=N)NOC(=O)c1ccc(C)c([N+](=O)[O-])c1

IC50 [17]: 6.64 µM (active)
Structure (SMILES): CCn1cc(C(=O)O)c(=O)c2cc(F)c(N3CCN(C(=S)NC(=O)c4ccccc4F)CC3)cc21

IC50 [4]: > 100 µM (inactive) | IC50 [5]: 48.2 µM (active) | IC50 (Prothrombin): 21.7 µM (active)
Structure (SMILES): COc1cccc2cc(C(=O)Nc3ccc(F)cc3)/c(=N/c3ccc(C(=O)O)cc3)oc12

IC50 (Fatty acid synthase [9]): 5.51 µM (active) | IC50 (Fatty acid synthase [10]): 4.36 µM (active)
Structure (SMILES): CC(C)(C)c1ccc(C(=O)OCCNC(=O)c2c(Cl)nc3ccccn23)cc1

AC50 (Cytochrome P450 2C9): inconclusive
Structure (SMILES): COc1ccccc1C1=NOC(COC(=O)c2ccc3ccccc3n2)C1 (configuration not stated)
